The source of these data is PubChem BioAssay (NCI).

Each structure is given as a SMILES string.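 Each compound was tested at five concentrations against cells in 96-well plates for 48 hours. GI50 marks 50% less growth. TGI: concentration producing complete growth inhibition.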

What all share (experiment): NCI anticancer screen, dose series, 48 h
The test system of experiment [1] is SNB-75 CNS.
Experiment [2] concerns UACC-257 melanoma.
Experiment [3] relates to MOLT-4 leukemia.
Experiment [4] relates to SF-295 CNS.
Experiment [5] relates to HT29 colon.
Experiment [6] deals with BT-549 breast.
Experiment [7] concerns HOP-92 NSCLC.
Experiment [8] deals with MALME-3M melanoma.
Experiment [9] concerns COLO 205 colon.
Experiment [10] deals with MDA-MB-435.

As for `Cc1ccc(S(=O)(=O)NC(=O)N[C@@H](Cc2cnc[nH]2)C(=O)O)cc1`, the TGI in experiment [1], in experiment [2], in experiment [3], in experiment [4], in experiment [5] and in [6] was > 100 µM each time. Further, the TGI in experiment [7], in [8] and in [9] was > 100 µM in each case.

Consider `COC(=O)C1CCCN1C(=O)C(Cc1cn(S(=O)(=O)c2ccc(C)cc2)cn1)NC(=O)OC(C)(C)C` (configuration not stated), for which the TGI in [1], in [2], in [3], in [5], in [6] and in experiment [7] was > 100 µM throughout. Moreover, the TGI in experiment [8] was > 100 µM.

Take `O=C1C(=Cc2ccccc2O)N=C(c2ccccc2)N1n1c(-c2ccccc2)nc2ccccc2c1=O`: the TGI in experiment [1] is 87.8 µM; in experiment [2], 69.1 µM; in [3], 77.7 µM; in experiment [10] it was > 100 µM; in [4], 56.8 µM; in [5], > 100 µM. In addition, the TGI was 89.9 µM in [6], > 100 µM in [8] and > 100 µM in experiment [9].

As for `COc1ccc(-c2nn(-c3ccc(NC(=O)Nc4cc(C(F)(F)F)cc(C(F)(F)F)c4)cc3)cc2-c2ccncc2)cc1Cl`, the GI50 in experiment [1] was 1.8 µM; in [2] it was 3.5 µM; in experiment [10] it was 3.03 µM; in experiment [4], 2.52 µM; in experiment [5] it was 2.75 µM; in experiment [7], 1.06 µM. The GI50 in experiment [8] is 2.11 µM; in experiment [9], 2.06 µM. Also, the TGI in experiment [1] is 8.11 µM; in [2], 12.5 µM; in [10] it was > 100 µM; in experiment [4], > 100 µM; in experiment [5], > 100 µM; in [7], 4.35 µM. The TGI in [8] came to 7.88 µM; in experiment [9], 4.17 µM.

Turning to `CCOC(=O)c1ccc(C)c(N=NN(C)C)c1`, the TGI in experiment [1], in experiment [2], in experiment [3], in [4], in experiment [5] and in experiment [7] was > 100 µM throughout. The TGI in experiment [8] and in [9] was > 100 µM each time.

Regarding `CCCCN=C(c1ccccc1)N1CCOCC1`, the TGI in [1] is 83.5 µM; in experiment [2], > 100 µM; in [3] it was > 100 µM; in experiment [10], > 100 µM; in [4] it was > 100 µM; in experiment [5], > 100 µM. For the same compound, the TGI in [6], in [8] and in experiment [9] was > 100 µM each time.

In the case of `COc1ccc(C2COc3cc(O)c(O)cc3C2)cc1` (configuration not stated), the TGI turned out to be 164 µM in experiment [1]; 181 µM in experiment [2]; 24.6 µM in [3]; 205 µM in [4]; 204 µM in experiment [5]; 24 µM in [7]. The results for the TGI in experiment [8] and in experiment [9] were 59.3 µM and 27.8 µM, respectively.

Take `Nc1ccc(S(=O)(=O)Nc2nccs2)cc1`: the TGI in experiment [1], in experiment [2], in experiment [3], in [10], in experiment [4] and in experiment [5] was > 100 µM in each case. For the same compound, the TGI in experiment [6], in [8] and in experiment [9] was > 100 µM in each case.

As for `O=[N+]([O-])/C(C(Cl)=C(Cl)Cl)=C(\N1CCCCC1)n1cncn1`, the TGI is 49.4 µM in experiment [1]; 36.6 µM in experiment [2]; > 50.5 µM in [3]; 36.3 µM in [10]; 35.8 µM in experiment [4]; 37.5 µM in experiment [5]. The figures for the TGI in experiment [6], in [8] and in experiment [9] were 31.6 µM, 30.9 µM and 30.3 µM, respectively.

As for `CC(C(O)Cc1ccccc1)N(C)N=Nc1ccc([N+](=O)[O-])cc1` (configuration not stated), the TGI is > 100 µM in experiment [1]; 45.4 µM in experiment [2]; > 100 µM in experiment [3]; 40.9 µM in experiment [10]; 46.2 µM in experiment [4]; 37.2 µM in experiment [5]. Moreover, the TGI in [6] was found to be 40.4 µM; in experiment [8], 43.3 µM; in experiment [9], 39.2 µM.

For the compound `O=C(O)/C=c1/c2ccccc2n2nc3ccccc3c12`, the TGI in experiment [2] was 70 µM; in [3], 69.6 µM; in experiment [10] it was > 100 µM; in experiment [4] it was > 100 µM; in [5] it was > 100 µM; in [6], > 100 µM. In addition, the TGI came out at 96.2 µM in experiment [8] and 33.5 µM in [9].

As to `O=c1c(C(c2ccc(Cl)cc2)c2c(O)c3ccccc3n(-c3ccccc3)c2=O)c(O)c2ccccc2n1-c1ccccc1`, the TGI was > 100 µM in experiment [3]; > 100 µM in experiment [4]; > 100 µM in experiment [7]; 60.1 µM in [8]; > 100 µM in [9].

With `O=C(O)c1ccc(OCc2nc3cc(C(F)(F)F)ccc3nc2-c2ccccc2)cc1`, the TGI is 98.7 µM in experiment [1]; > 100 µM in experiment [2]; > 100 µM in experiment [10]; > 100 µM in [4]; > 100 µM in experiment [5]; > 100 µM in experiment [6]. The TGI in experiment [7] is > 100 µM; in experiment [9] it was 37.8 µM.

Regarding `COC(=O)C1=C(C)NC(C)=C(C(=O)OC)C1c1nc2sccn2c1[N+](=O)[O-]`, the TGI in experiment [1], in experiment [2], in experiment [3], in experiment [10], in experiment [4] and in experiment [6] was > 100 µM in each case. Moreover, the TGI in experiment [7] and in [9] was > 100 µM each time.

On to `COc1ccc(/C=C2\N=C(SC)NC2=O)cc1`, for which the TGI in experiment [1], in experiment [3], in experiment [10], in experiment [4], in experiment [5] and in experiment [6] was > 100 µM in each case. The TGI in experiment [8] and in [9] was > 100 µM each time.

Regarding `O=C(CN(c1ccccc1)c1ccccc1)n1nnc2ccccc21`, the TGI in [1], in experiment [2], in experiment [3], in experiment [4], in experiment [5] and in experiment [8] was > 100 µM each time. For the same compound, the TGI in experiment [9] is > 100 µM.
